In patent publication EP0326329B1, “Quinazoline derivatives useful as insecticides” (Dow AgroSciences LLC, priority 1988, dated 1989):

How the values were obtained:
Type in all cases: in vivo
[1] = test system: Southern corn rootworm (Diabrotica undecimpuctata howardi Barber); assay: Mite/insect screen, soil treatment (CRW); conditions: Diabrotica, soil, read-out: CRW RESULTS %
Procedure, shortened: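 Five 2–3 instar larvae were placed on dry sandy soil with a presoaked corn seed after the soil had received 1 mL of compound solution and dried 6–12 h; cups were kept capped at 23°C. Mortality (%) and phytotoxicity were read after standard exposure. Formulation: acetone/alcohol with emulsifiers, water-diluted.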

[2] = test system: Erysiphe graminis tritici (powdery mildew); assay: Greenhouse Test 1, foliar spray fungicide screen (POWD MDEW), host wheat; conditions: disease control rating, 400 ppm (+++ at 100 ppm)
[3] = test system: Septoria tritici (leaf blotch); assay: Greenhouse Test 1, foliar spray fungicide screen (LEAF BLOT), host wheat; conditions: disease control rating, 400 ppm (+++ at 100 ppm)
[4] = test system: Pseudoperonospora cubensis (downy mildew); assay: Greenhouse Test 1, foliar spray fungicide screen (DOWN MDEW), host squash; conditions: disease control rating, 400 ppm (+++ at 100 ppm)
[5] = test system: Pyricularia oryzae (rice blast); conditions: disease control rating, foliar spray, host rice; 400 ppm (+++ at 100 ppm)
[6] = test system: Puccinia recondita tritici (leaf rust); assay: Greenhouse Test 1, foliar spray fungicide screen (LEAF RUST), host wheat; conditions: disease control rating, 400 ppm (+++ at 100 ppm)
[7] = test system: melon aphids (Aphis gossypii Glover); assay: Mite/insect screen, sprayed squash cotyledons (MA); conditions: Aphis gossypii, read-out: MA RESULTS %
Procedure, shortened: (§1)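 Percent mortality and phytotoxicity are the read-outs, assessed after standard exposure periods. Test solutions, made in 50:50 acetone/alcohol with two sulfonate/nonionic emulsifier blends and diluted in water, are sprayed to runoff on both leaf surfaces, which then dry for one hour.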

[8] = test system: Cercospora beticola (leaf spot); assay: Greenhouse Test 1, foliar spray fungicide screen (LEAF SPOT), host sugar beet; conditions: disease control rating, 400 ppm (+++ at 100 ppm)
[9] = test system: Venturia inaequalis (apple scab); assay: Greenhouse Test 1, foliar spray fungicide screen (APPL SCAB), host apple seedling; conditions: disease control rating, 400 ppm (+++ at 100 ppm)
[10] = test system: Pseudocercosporella herpotrichoides; assay: Fungicide field tests; conditions: crop: wheat
Text: (§2) Selected compounds were field tested on various crops against a variety of pathogens. […]

[11] = test system: Plasmopara viticola; assay: Fungicide field tests; conditions: crop: grape
Text: as §2

[12] = test system: Rhynchosporium secalis; assay: Fungicide field tests; conditions: crop: barley
Text: as §2

[13] = test system: Pyrenophora teres; assay: Fungicide field tests; conditions: crop: barley
Text: as §2

[14] = test system: Erysiphe graminis hordei; assay: Fungicide field tests; conditions: crop: barley
Text: as §2

[15] = test system: Erysiphe graminis tritici; assay: Fungicide field tests; conditions: crop: wheat
Text: as §2

[16] = test system: Erysiphe sp.; assay: Fungicide field tests; conditions: crop: sugar beet
Text: as §2

[17] = test system: Sphaerotheca fuliginea; assay: Fungicide field tests; conditions: crop: cucumber
Text: as §2

[18] = test system: Twospotted spider mites (Tetranychus urticae Koch); assay: Mite/insect screen, sprayed squash cotyledons (SM); conditions: Tetranychus urticae, read-out: SM RESULTS %
Procedure, shortened: as §1

[19] = test system: Botrytis cinerea (gray mold); assay: Greenhouse Test 1, foliar spray fungicide screen (GRAY MOLD), host grape berries; conditions: disease control rating, 400 ppm (+++ at 100 ppm)
[20] = test system: southern armyworm (Spodopetra eridania Cramer); assay: Mite/insect screen, sprayed squash leaves (SAW); conditions: Spodoptera eridania, read-out: SAW RESULTS %
Procedure, shortened: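 Acetone/alcohol (50:50) + emulsifier blends 23 g/L and 13 g/L; water dilution to test concs. Spray both leaf surfaces to runoff, dry 1 h. For armyworm, 2 excised uninfested leaves into Petri dish with larvae. Readout: % mortality, phytotoxicity.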

[21] = test system: green peach aphid; assay: Mite and insect field trials
Protocol: (§3) 4-[2-[4-(t-butyl)phenyl]ethoxy]quinazoline and 4-[2-(1,1'-biphenyl)-4 biphenyl)-4-ylethoxy]quinazoline were evaluated against a variety of mite and insect species in field trials.

[22] = test system: Dawson-hop aphid; assay: Mite and insect field trials; conditions: plant: hops
Protocol: as §3

[23] = test system: potato aphid; assay: Mite and insect field trials; conditions: plant: turnip
Protocol: as §3

[24] = test system: rosy apple aphid; assay: Mite and insect field trials; conditions: plant: apples
Protocol: as §3

[25] = test system: grape thrips; assay: Mite and insect field trials; conditions: plant: grape (European)
Protocol: as §3

[26] = test system: black citrus aphid; assay: Mite and insect field trials; conditions: plant: lemon
Protocol: as §3

[27] = test system: twospotted spider mite; assay: Mite and insect field trials
Protocol: as §3

[28] = test system: European red mite; assay: Mite and insect field trials; conditions: plant: apples
Protocol: as §3

[29] = test system: thrips; assay: Mite and insect field trials; conditions: plant: privet
Protocol: as §3

[30] = test system: cereal aphid; assay: Mite and insect field trials; conditions: plant: barley
Protocol: as §3

[31] = test system: white apple leafhopper; assay: Mite and insect field trials; conditions: plant: apples
Protocol: as §3

[32] = test system: tarnished plant bug; assay: Mite and insect field trials; conditions: plant: alfalfa (Lucerne)
Protocol: as §3

[33] = test system: pea aphid; assay: Mite and insect field trials
Protocol: as §3

[34] = test system: yellow hickory aphid; assay: Mite and insect field trials; conditions: plant: pecan nut
Protocol: as §3

[35] = test system: green cloverworm; assay: Mite and insect field trials; conditions: plant: alfalfa (Lucerne)
Protocol: as §3

[36] = test system: grape leafhopper; assay: Mite and insect field trials; conditions: plant: grape (European)
Protocol: as §3

[37] = test system: cotton aphid; assay: Mite and insect field trials; conditions: plant: cotton
Protocol: as §3

[38] = test system: citrus rust mite; assay: Mite and insect field trials; conditions: tested on grapefruit
Protocol: as §3

[39] = test system: apple rust mite; assay: Mite and insect field trials; conditions: plant: apples
Protocol: as §3

[40] = test system: bean aphid; assay: Mite and insect field trials; conditions: plant: bean, faba broad
Protocol: as §3

[41] = test system: wheat aphid; assay: Mite and insect field trials; conditions: plant: wheat
Protocol: as §3

[42] = test system: apple aphid; assay: Mite and insect field trials; conditions: plant: apples
Protocol: as §3

[43] = test system: greenhouse thrips; assay: Mite and insect field trials; conditions: plant: azaleas
Protocol: as §3

[44] = test system: potato leafhopper; assay: Mite and insect field trials; conditions: plant: alfalfa (Lucerne)
Protocol: as §3

## CC(C)(C)c1ccc(CCOc2ncnc3ccccc23)cc1 [Example 2, 4-[2-[4-(t-butyl)phenyl]ethoxy]quinazoline]
[1]
  mortality at 12 ppm: 0%
  mortality at 24 ppm: 0%
[2]
  POWD MDEW: ++ (++ = 90-100% control at 400 ppm)
[3]
  LEAF BLOT: + (+ = 20-89% control at 400 ppm)
[4]
  DOWN MDEW: +++ (+++ = 90-100% control at 100 ppm)
[5]
  RICE BLAST: +++ (+++ = 90-100% control at 100 ppm)
[6]
  LEAF RUST: +++ (+++ = 90-100% control at 100 ppm)
[7]
  mortality at 200 ppm: 90%
  mortality at 400 ppm: 80%
[8]
  LEAF SPOT: ++ (++ = 90-100% control at 400 ppm)
[9]
  APPL SCAB: + (+ = 20-89% control at 400 ppm)
[10]
  pathogen against which compound demonstrated activity in field tests: Pseudocercosporella herpotrichoides
[11]
  pathogen against which compound demonstrated activity in field tests: Plasmopara viticola
[12]
  pathogen against which compound demonstrated activity in field tests: Rhynchosporium secalis
[13]
  pathogen against which compound demonstrated activity in field tests: Pyrenophora teres
[14]
  pathogen against which compound demonstrated activity in field tests: Erysiphe graminis hordei
[15]
  pathogen against which compound demonstrated activity in field tests: Erysiphe graminis tritici
[16]
  pathogen against which compound demonstrated activity in field tests: Erysiphe sp.
[17]
  pathogen against which compound demonstrated activity in field tests: Sphaerotheca fuliginea
[18]
  mortality at 200 ppm: 100%
  mortality at 400 ppm: 90%
[19]
  GRAY MOLD: - (- = 0-19% control at 400 ppm)
[20]
  mortality at 200 ppm: 0%
  mortality at 400 ppm: 20%
[21]; plant: apples
  mite or insect species against which they showed activity in field trials: green peach aphid
[21]; plant: sugar beet
  mite or insect species against which they showed activity in field trials: green peach aphid
[22]
  mite or insect species against which they showed activity in field trials: Dawson-hop aphid
[23]
  mite or insect species against which they showed activity in field trials: potato aphid
[24]
  mite or insect species against which they showed activity in field trials: rosy apple aphid
[25]
  mite or insect species against which they showed activity in field trials: grape thrips
[26]
  mite or insect species against which they showed activity in field trials: black citrus aphid
[27]; plant: azaleas
  mite or insect species against which they showed activity in field trials: twospotted spider mite
[27]; plant: broccoli
  mite or insect species against which they showed activity in field trials: twospotted spider mite
[27]; plant: plum (Japanese)
  mite or insect species against which they showed activity in field trials: twospotted spider mite
[28]
  mite or insect species against which they showed activity in field trials: European red mite
[29]
  mite or insect species against which they showed activity in field trials: thrips
[30]
  mite or insect species against which they showed activity in field trials: cereal aphid
[31]
  mite or insect species against which they showed activity in field trials: white apple leafhopper
[32]
  mite or insect species against which they showed activity in field trials: tarnished plant bug
[33]; plant: alfalfa (Lucerne)
  mite or insect species against which they showed activity in field trials: pea aphid
[33]; plant: pea, garden (English)
  mite or insect species against which they showed activity in field trials: pea aphid
[34]
  mite or insect species against which they showed activity in field trials: yellow hickory aphid
[35]
  mite or insect species against which they showed activity in field trials: green cloverworm
[36]
  mite or insect species against which they showed activity in field trials: grape leafhopper
[37]
  mite or insect species against which they showed activity in field trials: cotton aphid
[38]
  activity against citrus rust mite in field trials: showing activity
[39]
  mite or insect species against which they showed activity in field trials: apple rust mite
[40]
  mite or insect species against which they showed activity in field trials: bean aphid
[41]
  mite or insect species against which they showed activity in field trials: wheat aphid
[42]
  mite or insect species against which they showed activity in field trials: apple aphid
[43]
  mite or insect species against which they showed activity in field trials: greenhouse thrips
[44]
  mite or insect species against which they showed activity in field trials: potato leafhopper
